Assay results taken from ChEMBL document CHEMBL3881527, “Multi-functional small molecules as anti-proliferative agents” (2008).
Active and inactive are the calls of the source. The rule behind the calls is not given here.

Tests used:
[1] = molecular target: Platelet-derived growth factor receptor beta (Homo sapiens, UniProt P09619); experiment: Inhibition of N-terminal GST-His6-thrombin cleavage site-fused human PDGFRbeta (Arg561 to Leu1106 residues) assessed as decrease in biotinylated FLT3 phosphorylation at Tyr589 preincubated for 5 mins followed by substrate addition measured after 30 mins by DELFIA method
[2] = molecular target: Mast/stem cell growth factor receptor Kit (Homo sapiens, UniProt P10721); experiment: Inhibition of human N-terminal GST-tagged human c-Kit (Thr544 to Val976 residues) expressed in baculovirus expression system assessed as decrease in biotinylated KDR phosphorylation at Tyr996 preincubated for 5 mins followed by substrate addition measured after 30 mins by DELFIA method
[3] = molecular target: Vascular endothelial growth factor receptor 2 (Homo sapiens, UniProt P35968); experiment: Inhibition of N-terminal GST-His6-thrombin cleavage site-fused human VEGFR2 (Asp805 to Val1356 residues) expressed in baculovirus expression system using biotinylated gastrin precursor at Tyr87 as substrate preincubated for 5 mins followed by substrate addition measured after 30 mins by DELFIA method
[4] = Cytotoxicity against human CFPAC cells assessed as growth inhibition by measuring ATP levels after 72 hrs by ATPlite assay; type: functional, cell-based
[5] = molecular target: Receptor tyrosine-protein kinase erbB-2 (Homo sapiens, UniProt P04626); experiment: Inhibition of N-terminal GST-tagged human HER2 (Lys676 to Val1255 residues) expressed in baculovirus expression system using biotinylated FLT3 at Tyr589 as substrate preincubated for 5 mins followed by substrate addition measured after 30 mins by DELFIA method
[6] = molecular target: Tyrosine-protein kinase ABL1 (Homo sapiens, UniProt P00519); experiment: Inhibition of human N-terminal GST-tagged human Abl1 (Pro118 to Ser553 residues) expressed in baculovirus expression system assessed as decrease in biotin signal transduction protein phosphorylation at Tyr160 preincubated for 5 mins followed by substrate addition measured after 30 mins by DELFIA method
[7] = molecular target: Proto-oncogene tyrosine-protein kinase Src (Homo sapiens, UniProt P12931); experiment: Inhibition of human N-terminal GST-tagged full length human Src (Met1 to Leu536 residues) expressed in baculovirus expression system assessed as decrease in biotin signal transduction protein phosphorylation at Tyr160 preincubated for 5 mins followed by substrate addition measured after 30 mins by DELFIA method
[8] = Chemical stability in diluted solution; type: physicochemical
[9] = molecular target: Cyclin-dependent kinase 2/cyclin E1 (Homo sapiens, UniProt P24941); experiment: Inhibition of C-terminal His6-tagged full length CDK2/N-terminal GST-tagged recombinant full length human cyclin E1 expressed in baculovirus infected SF21 insect cells using histone H1 as substrate after 2 hrs in presence of [gamma-33P]-ATP
SK-BR-3 = experiment: Induction of apoptosis in human SKBR3 cells assessed as increase in caspase3/7 activity after 24 hrs; type: functional, cell-based; details: SK-BR-3, 24 h
HCT-116 [10] = experiment: Induction of apoptosis in human HCT116 cells assessed as increase in caspase3/7 activity after 24 hrs; type: functional, cell-based; details: HCT-116, 24 h
[11] = molecular target: Serine/threonine-protein kinase B-raf (Homo sapiens, UniProt P15056); experiment: Inhibition of N-terminal GST-tagged recombinant human B-Raf ([…] residues) expressed in baculovirus infected Sf21 insect cells using MEK1 as substrate preincubated for 5 mins followed by substrate addition measured after 30 mins by DELFIA
CDK6/cyclin D3 = CDK6/cyclin D3 (Homo sapiens, UniProt Q00534); experiment: Inhibition of N-terminal His6-tagged full length human CDK6/N-terminal GST-tagged recombinant full length human cyclin D3 expressed in baculovirus infected SF21 insect cells using histone H1 as substrate after 2 hrs in presence of [gamma-33P]-ATP
HCT-116 [12] = experiment: Antitumor activity against human HCT116 cells xenografted in nu/nu athymic mouse assessed as tumor growth inhibition at 15 to 60 mg/kg, iv as 2 mins infusion administered via 5 days on 2 days off and 5 days on regimen measured twice weekly during compound dosing; type: functional, organism-based
A-431 = experiment: Antitumor activity against human A431 cells xenografted in nu/nu athymic mouse assessed as tumor growth inhibition at 6 to 48 mg/kg, ip qd administered for 21 days measured twice weekly during compound dosing; type: functional, organism-based
HPAC = experiment: Antitumor activity against human HPAC cells xenografted in nu/nu athymic mouse assessed as tumor growth inhibition at 120 mg/kg, iv or ip administered in 30% captisol; type: functional, organism-based
BXPC-3 = experiment: Antitumor activity against human BxPC3 cells xenografted in nu/nu athymic mouse assessed as tumor growth inhibition at 10 to 40 mg/kg, iv as 2 mins infusion administered via 7 days on 7 days off and 2 days on regimen measured twice weekly during compound dosing; type: functional, organism-based
NCI-H292 = experiment: Antitumor activity against human NCI-H292 cells xenografted in nu/nu athymic mouse assessed as tumor growth inhibition at 15 to 60 mg/kg, iv as 2 mins infusion administered via 7 days on 7 days off and 5 days on regimen measured twice weekly during compound dosing; type: functional, organism-based
NCI-H358 = experiment: Antitumor activity against human NCI-H358 cells xenografted in nu/nu athymic mouse assessed as tumor growth inhibition at 15 to 60 mg/kg, iv as 2 mins infusion administered via 7 days on 7 days off and 5 days on regimen measured twice weekly during compound dosing; type: functional, organism-based
PC-3 = experiment: Antitumor activity against human PC3 cells xenografted in nu/nu athymic mouse assessed as tumor growth inhibition at 10 to 40 mg/kg, iv as 2 mins infusion administered via 7 days on 7 days off and 5 days on regimen measured twice weekly during compound dosing; type: functional, organism-based
[13] = molecular target: Epidermal growth factor receptor (Homo sapiens, UniProt P00533); experiment: Inhibition of N-terminal GST-fused human EGFR (His672 to Ala1210 residues) expressed in baculovirus expression system using biotinylated PTP1B at Tyr66 as substrate preincubated for 5 mins followed by substrate addition measured after 30 mins by DELFIA
[14] = Toxicity in CD1 mouse assessed as change in body weight up to 100 mg/kg, ip administered as repeated dosing in 30% captisol measured over 7 days; type: organism-based; details: in vivo, 168 h
[15] = Toxicity in CD1 mouse assessed as change in body weight up to 200 mg/kg, iv administered as single dose in 30% captisol measured over 9 days; type: organism-based; details: in vivo, 216 h
[16] = Antitumor activity against human A549 cells xenografted in nu/nu athymic mouse assessed as increase in tumor size at 120 mg/kg administered in 30% captisol after 24 hrs (reference value: 240%); type: functional
[17] = Toxicity in Sprague-Dawley rat assessed as change in body weight up to 200 mg/kg, ip administered as single dose in 30% captisol measured over 8 days; type: organism-based; details: in vivo, 192 h

Sequence of Receptor tyrosine-protein kinase erbB-2 (P04626 whole entry): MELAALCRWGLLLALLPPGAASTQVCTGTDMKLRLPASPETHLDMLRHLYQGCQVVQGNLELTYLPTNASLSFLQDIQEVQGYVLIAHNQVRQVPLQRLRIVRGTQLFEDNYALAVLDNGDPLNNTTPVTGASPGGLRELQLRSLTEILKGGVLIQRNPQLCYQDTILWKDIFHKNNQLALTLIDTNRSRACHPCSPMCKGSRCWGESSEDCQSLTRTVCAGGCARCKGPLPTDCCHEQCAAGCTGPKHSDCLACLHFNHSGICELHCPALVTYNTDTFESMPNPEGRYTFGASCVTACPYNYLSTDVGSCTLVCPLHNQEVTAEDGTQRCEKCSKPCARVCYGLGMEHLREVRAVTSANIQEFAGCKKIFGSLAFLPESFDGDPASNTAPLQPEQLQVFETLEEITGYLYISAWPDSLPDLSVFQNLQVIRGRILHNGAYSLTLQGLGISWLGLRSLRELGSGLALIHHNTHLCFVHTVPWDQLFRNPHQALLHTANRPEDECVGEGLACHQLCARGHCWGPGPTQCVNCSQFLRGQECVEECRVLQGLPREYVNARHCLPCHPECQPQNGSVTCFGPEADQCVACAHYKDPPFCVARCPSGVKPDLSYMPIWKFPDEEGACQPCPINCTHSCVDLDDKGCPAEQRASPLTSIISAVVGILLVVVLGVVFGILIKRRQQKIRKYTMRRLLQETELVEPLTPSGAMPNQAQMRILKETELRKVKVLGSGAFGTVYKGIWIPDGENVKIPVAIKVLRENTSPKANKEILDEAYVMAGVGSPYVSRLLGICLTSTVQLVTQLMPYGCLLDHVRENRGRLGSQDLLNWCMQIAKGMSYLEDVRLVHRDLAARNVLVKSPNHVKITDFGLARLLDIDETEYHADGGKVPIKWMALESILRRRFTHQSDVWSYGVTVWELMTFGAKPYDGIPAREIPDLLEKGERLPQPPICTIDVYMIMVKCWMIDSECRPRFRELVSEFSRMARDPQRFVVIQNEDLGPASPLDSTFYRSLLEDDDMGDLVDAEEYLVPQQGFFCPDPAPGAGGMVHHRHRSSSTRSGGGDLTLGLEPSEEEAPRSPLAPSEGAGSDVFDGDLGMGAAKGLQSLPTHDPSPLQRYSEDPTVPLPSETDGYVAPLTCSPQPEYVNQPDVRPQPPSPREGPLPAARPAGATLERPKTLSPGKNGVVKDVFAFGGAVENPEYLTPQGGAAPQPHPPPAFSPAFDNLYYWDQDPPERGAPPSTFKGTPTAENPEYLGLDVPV
Sequence of Mast/stem cell growth factor receptor Kit (P10721 whole entry, the tested form may be a part): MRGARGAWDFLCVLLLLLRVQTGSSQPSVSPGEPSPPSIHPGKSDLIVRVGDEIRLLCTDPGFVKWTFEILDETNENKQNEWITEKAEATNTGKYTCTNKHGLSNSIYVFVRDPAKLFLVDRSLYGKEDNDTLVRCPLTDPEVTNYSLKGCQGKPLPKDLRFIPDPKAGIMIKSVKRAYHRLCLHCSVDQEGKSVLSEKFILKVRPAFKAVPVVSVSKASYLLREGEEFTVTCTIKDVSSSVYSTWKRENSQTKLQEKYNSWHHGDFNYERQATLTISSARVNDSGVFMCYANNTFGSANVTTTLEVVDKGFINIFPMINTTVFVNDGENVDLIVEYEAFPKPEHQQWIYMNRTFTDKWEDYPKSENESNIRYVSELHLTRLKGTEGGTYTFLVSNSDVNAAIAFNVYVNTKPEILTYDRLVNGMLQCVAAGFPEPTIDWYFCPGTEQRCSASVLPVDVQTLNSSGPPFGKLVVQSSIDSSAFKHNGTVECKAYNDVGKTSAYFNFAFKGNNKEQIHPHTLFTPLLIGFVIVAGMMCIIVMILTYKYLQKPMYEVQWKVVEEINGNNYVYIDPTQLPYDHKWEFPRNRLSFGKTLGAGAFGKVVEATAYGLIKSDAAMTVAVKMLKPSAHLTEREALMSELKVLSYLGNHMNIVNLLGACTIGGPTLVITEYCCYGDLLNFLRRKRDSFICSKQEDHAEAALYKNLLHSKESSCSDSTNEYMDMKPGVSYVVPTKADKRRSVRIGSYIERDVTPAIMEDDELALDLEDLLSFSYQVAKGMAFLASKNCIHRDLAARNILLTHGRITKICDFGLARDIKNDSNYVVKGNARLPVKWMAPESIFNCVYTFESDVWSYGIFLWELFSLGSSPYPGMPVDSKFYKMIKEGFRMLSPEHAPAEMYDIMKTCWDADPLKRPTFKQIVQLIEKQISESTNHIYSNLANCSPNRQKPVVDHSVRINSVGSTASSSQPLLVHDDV
Sequence of Tyrosine-protein kinase ABL1 (P00519 whole entry): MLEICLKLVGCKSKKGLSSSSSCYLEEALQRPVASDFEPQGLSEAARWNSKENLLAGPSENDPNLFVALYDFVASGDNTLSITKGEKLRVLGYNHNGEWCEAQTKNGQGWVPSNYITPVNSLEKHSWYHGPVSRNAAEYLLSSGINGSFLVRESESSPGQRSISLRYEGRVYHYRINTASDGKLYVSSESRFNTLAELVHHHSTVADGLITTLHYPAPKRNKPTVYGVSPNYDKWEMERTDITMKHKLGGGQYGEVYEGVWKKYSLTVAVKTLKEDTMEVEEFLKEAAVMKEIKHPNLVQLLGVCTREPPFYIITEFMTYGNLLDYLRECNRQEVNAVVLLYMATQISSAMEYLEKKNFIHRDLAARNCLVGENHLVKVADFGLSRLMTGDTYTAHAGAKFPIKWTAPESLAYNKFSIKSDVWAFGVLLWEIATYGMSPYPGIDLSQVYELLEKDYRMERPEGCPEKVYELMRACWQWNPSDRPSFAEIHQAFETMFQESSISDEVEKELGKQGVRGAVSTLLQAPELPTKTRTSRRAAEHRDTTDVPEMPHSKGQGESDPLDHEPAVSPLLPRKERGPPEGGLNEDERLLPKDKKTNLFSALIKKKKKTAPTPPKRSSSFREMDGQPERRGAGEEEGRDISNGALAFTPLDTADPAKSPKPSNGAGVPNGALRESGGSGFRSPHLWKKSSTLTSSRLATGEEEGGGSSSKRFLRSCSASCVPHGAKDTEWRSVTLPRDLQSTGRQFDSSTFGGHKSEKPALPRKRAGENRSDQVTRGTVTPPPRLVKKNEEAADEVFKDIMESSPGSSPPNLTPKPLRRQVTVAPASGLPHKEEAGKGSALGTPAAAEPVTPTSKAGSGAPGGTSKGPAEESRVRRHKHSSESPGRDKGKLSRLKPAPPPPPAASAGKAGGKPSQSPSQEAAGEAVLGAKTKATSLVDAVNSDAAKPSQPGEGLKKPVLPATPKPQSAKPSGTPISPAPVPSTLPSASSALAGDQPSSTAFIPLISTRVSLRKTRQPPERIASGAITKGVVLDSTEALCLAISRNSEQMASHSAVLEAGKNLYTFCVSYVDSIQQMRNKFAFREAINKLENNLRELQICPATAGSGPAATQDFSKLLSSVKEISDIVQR
Sequence of CDK6/cyclin D3 (P30281 whole entry, the tested form may be a part): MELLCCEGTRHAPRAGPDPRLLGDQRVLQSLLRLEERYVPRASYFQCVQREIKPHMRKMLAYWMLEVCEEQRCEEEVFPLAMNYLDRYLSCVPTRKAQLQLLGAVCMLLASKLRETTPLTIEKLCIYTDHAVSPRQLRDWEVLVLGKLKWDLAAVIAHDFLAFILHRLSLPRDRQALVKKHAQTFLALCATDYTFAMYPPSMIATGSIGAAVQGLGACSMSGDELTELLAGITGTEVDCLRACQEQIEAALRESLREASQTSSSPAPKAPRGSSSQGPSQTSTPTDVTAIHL
Sequence of CDK6/cyclin D3 (Q00534 whole entry, the tested form may be a part): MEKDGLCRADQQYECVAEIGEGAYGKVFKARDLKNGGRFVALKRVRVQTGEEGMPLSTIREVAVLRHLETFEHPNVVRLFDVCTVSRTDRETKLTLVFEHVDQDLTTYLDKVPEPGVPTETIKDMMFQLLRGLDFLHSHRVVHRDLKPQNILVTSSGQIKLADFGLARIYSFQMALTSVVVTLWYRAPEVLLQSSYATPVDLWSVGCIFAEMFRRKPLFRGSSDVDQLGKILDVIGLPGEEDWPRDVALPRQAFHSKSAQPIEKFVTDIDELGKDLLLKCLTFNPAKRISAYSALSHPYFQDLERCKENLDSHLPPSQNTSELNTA
Sequence of Proto-oncogene tyrosine-protein kinase Src (P12931 2-536 limits assumed): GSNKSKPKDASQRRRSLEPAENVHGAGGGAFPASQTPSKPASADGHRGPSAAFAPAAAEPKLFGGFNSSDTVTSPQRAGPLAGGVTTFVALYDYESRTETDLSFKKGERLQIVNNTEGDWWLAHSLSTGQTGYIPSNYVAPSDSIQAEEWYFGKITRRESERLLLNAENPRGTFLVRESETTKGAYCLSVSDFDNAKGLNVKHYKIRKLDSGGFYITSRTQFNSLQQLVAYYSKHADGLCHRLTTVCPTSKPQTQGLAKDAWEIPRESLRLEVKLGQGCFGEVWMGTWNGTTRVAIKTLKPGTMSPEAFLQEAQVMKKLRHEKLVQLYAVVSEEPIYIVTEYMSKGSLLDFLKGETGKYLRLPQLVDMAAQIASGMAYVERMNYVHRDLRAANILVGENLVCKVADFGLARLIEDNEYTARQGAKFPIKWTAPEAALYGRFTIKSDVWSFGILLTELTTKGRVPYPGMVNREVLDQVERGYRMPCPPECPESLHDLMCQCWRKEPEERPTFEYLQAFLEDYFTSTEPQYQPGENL

O=C(CCCCCCCNC(=O)c1cc(Oc2ccc(NC(=O)Nc3ccc(Cl)c(C(F)(F)F)c3)cc2)ccn1)NO
IC50 [1]: 100 to 1000 nM
IC50 [2]: ≤ 100 nM
IC50 [3]: 100 to 1000 nM

O=C(CCCCCCOc1ccc2ncnc(Nc3ccc(F)c(Cl)c3)c2c1)NO
IC50 [4]: 100 to 1000 nM
IC50 [5]: 100 to 1000 nM

COc1cc2ncnc(NCc3ccccc3)c2cc1OCCCCCCC(=O)NO
IC50 [4]: 1000 to 10000 nM

O=C(CCCCCCC(=O)NCc1cc(Oc2ccc(NC(=O)Nc3ccc(Cl)c(C(F)(F)F)c3)cc2)ccn1)NO
IC50 [1]: 100 to 1000 nM
IC50 [2]: ≤ 100 nM
IC50 [3]: ≤ 100 nM

Cc1nc(NCCCCCCC(=O)NO)cc(Nc2ncc(C(=O)Nc3c(C)cccc3Cl)s2)n1
IC50 [1]: ≤ 100 nM
IC50 [2]: ≤ 100 nM
IC50 [6]: ≤ 100 nM
IC50 [7]: ≤ 100 nM

C#Cc1cccc(Nc2ncnc3cc(OC)c(OCCCCCCC(=O)N[O-])cc23)c1.[Na+]
Stability [8]: > 12 h

CC(C)(C)c1cnc(CSc2cnc(NC(=O)CCCCCCC(=O)NO)s2)o1
IC50 [9]: ≤ 100 nM

C#Cc1cccc(Nc2ncnc3cc(OCCOC)c(OCCOC)cc23)c1 [ERLOTINIB]
IC50 (SK-BR-3): > 20000 nM
IC50 (HCT-116 [10]): > 20000 nM

O=C(CCCCCNC(=O)c1cc(Oc2ccc(NC(=O)Nc3ccc(Cl)c(C(F)(F)F)c3)cc2)ccn1)NO
IC50 [1]: 100 to 1000 nM
IC50 [2]: ≤ 100 nM
IC50 [3]: ≤ 100 nM
IC50 [11]: 1000 to 10000 nM

CC(C)(C)c1cnc(CSc2cnc(NC(=O)CCCCC(=O)NO)s2)o1
IC50 (CDK6/cyclin D3): 100 to 1000 nM
IC50 [9]: ≤ 100 nM

C#Cc1cccc(Nc2ncnc3cc(OC)c(OCCCCCCC(=O)NO)cc23)c1
TGI (HCT-116 [12]): Active
TGI (A-431): Active
TGI (HPAC): Active
TGI (BXPC-3): Active
TGI (NCI-H292): Active
TGI (NCI-H358): Active
TGI (PC-3): Active

Cc1nc(Nc2ncc(C(=O)Nc3c(C)cccc3Cl)s2)cc(N2CCN(CCCCCCC(=O)NO)CC2)n1
IC50 [1]: ≤ 100 nM
IC50 [2]: ≤ 100 nM
IC50 [6]: ≤ 100 nM
IC50 [7]: ≤ 100 nM

CC(C)(C)c1cnc(CSc2cnc(NC(=O)Cc3ccc(OCCCC(=O)NO)cc3)s2)o1
IC50 [9]: ≤ 100 nM

Cc1[nH]c(/C=C2\C(=O)Nc3ccc(F)cc32)c(C)c1C(=O)NCCCCCC(=O)NO
IC50 [1]: ≤ 100 nM
IC50 [3]: ≤ 100 nM

CC(C)(C)c1cnc(CSc2cnc(NC(=O)Cc3ccc(OCCCCC(=O)NO)cc3)s2)o1
IC50 [9]: ≤ 100 nM

Cc1nc(Nc2ncc(C(=O)Nc3c(C)cccc3Cl)s2)cc(N2CCN(CCCCC(=O)NO)CC2)n1
IC50 [1]: ≤ 100 nM
IC50 [6]: ≤ 100 nM
IC50 [7]: ≤ 100 nM

Cc1nc(Nc2ncc(C(=O)Nc3c(C)cccc3Cl)s2)cc(N2CCN(CC(=O)NO)CC2)n1
IC50 [1]: ≤ 100 nM
IC50 [6]: ≤ 100 nM
IC50 [7]: ≤ 100 nM

Cc1nc(Nc2ncc(C(=O)Nc3c(C)cccc3Cl)s2)cc(N2CCN(CCCCCC(=O)NO)CC2)n1
IC50 [1]: ≤ 100 nM
IC50 [2]: ≤ 100 nM
IC50 [6]: ≤ 100 nM
IC50 [7]: ≤ 100 nM

O=C(CCCCC(=O)NCc1cc(Oc2ccc(NC(=O)Nc3ccc(Cl)c(C(F)(F)F)c3)cc2)ccn1)NO
IC50 [1]: 100 to 1000 nM
IC50 [2]: ≤ 100 nM
IC50 [3]: ≤ 100 nM

COc1cc2ncnc(N[C@H](C)c3ccccc3)c2cc1OCCCCCC(=O)NO
IC50 [4]: 1000 to 10000 nM

Cc1[nH]c(/C=C2\C(=O)Nc3ccc(F)cc32)c(C)c1C(=O)NCCCCCCC(=O)NO
IC50 [1]: 100 to 1000 nM
IC50 [3]: ≤ 100 nM

COc1cc2ncnc(Nc3ccc(F)c(Cl)c3)c2cc1NC(=O)CCCCCCC(=O)NO
IC50 [4]: 1000 to 10000 nM
IC50 [5]: 100 to 1000 nM

Cc1[nH]c(/C=C2\C(=O)Nc3ccc(F)cc32)c(C)c1C(=O)NCCCCCCCC(=O)NO
IC50 [1]: 100 to 1000 nM
IC50 [3]: ≤ 100 nM

Cc1nc(NCCNCC(=O)NO)cc(Nc2ncc(C(=O)Nc3c(C)cccc3Cl)s2)n1
IC50 [6]: ≤ 100 nM
IC50 [7]: ≤ 100 nM

CC(C)(C)c1cnc(CSc2cnc(NC(=O)CCCC(=O)NO)s2)o1
IC50 (CDK6/cyclin D3): 100 to 1000 nM
IC50 [9]: ≤ 100 nM

COc1cc2ncnc(Nc3ccc(F)c(Cl)c3)c2cc1OCCOc1ccc(/C=C/C(=O)NO)cc1
IC50 [4]: ≥ 10000 nM
IC50 [13]: ≤ 100 nM

COCCOc1cc2ncnc(Nc3ccc(F)c(Cl)c3)c2cc1NC(=O)CCCCCCC(=O)NO
IC50 [4]: 1000 to 10000 nM
IC50 [5]: ≤ 100 nM

Cc1[nH]c(/C=C2\C(=O)Nc3ccc(F)cc32)c(C)c1C(=O)NCCCC(=O)NO
IC50 [1]: ≤ 100 nM
IC50 [3]: ≤ 100 nM

Cc1nc(N)cc(N(CC(=O)NO)c2ncc(C(=O)Nc3c(C)cccc3Cl)s2)n1
IC50 [6]: 100 to 1000 nM
IC50 [7]: 100 to 1000 nM

C#Cc1cccc(Nc2ncnc3cc(OC)c(OCCCCCCC(=O)NO)cc23)c1 [CUDC-101]
IC50 (SK-BR-3): 920 nM
IC50 [4]: 100 to 1000 nM
Activity [14]: Non-Toxic
IC50 (HCT-116 [10]): 170 nM
Activity [15]: Non-Toxic
Activity [16]: 150%
Activity [17]: Non-Toxic

Cc1nc(Nc2ncc(C(=O)Nc3c(C)cccc3Cl)s2)cc(N2CCN(CCCC(=O)NO)CC2)n1
IC50 [6]: ≤ 100 nM
IC50 [7]: ≤ 100 nM

Cc1nc(NCCCCCC(=O)NO)cc(Nc2ncc(C(=O)Nc3c(C)cccc3Cl)s2)n1
IC50 [1]: ≤ 100 nM
IC50 [2]: ≤ 100 nM
IC50 [6]: ≤ 100 nM
IC50 [7]: ≤ 100 nM

CC(C)(C)c1cnc(CSc2cnc(NC(=O)CCCCCC(=O)NO)s2)o1
IC50 (CDK6/cyclin D3): 100 to 1000 nM
IC50 [9]: ≤ 100 nM
